Source: US20230276835A1, “SAVORY TASTE ENHANCEMENT VIA TRANSMEMBRANE REGION BINDING” (Firmenich Incorporated, priority 2020, published 2023)

How the values were obtained:
[1] = Sensory testing: paired choice of greater umami taste; format: in vivo, human; settings: 16 mM MSG solution vs 4 ppm S807 solution, 32 selections; for number of selections favoring the solution as having greater umami taste: 16 panelists, 2 reps
Source text: Of the 32 selections, 19 favored the MSG solution and 13 favored the S807 solution.

T1R1/T1R3 = target: T1, T1R1/T1R3 (Homo sapiens, UniProt Q7RTX1); assay: T1R1/T1R3 assay (cells expressing hT1R1 in the presence of hT1R3); format: cell-based
T1 construct: expressed in transfected cells
T1 sequence (Q7RTX1 21-841): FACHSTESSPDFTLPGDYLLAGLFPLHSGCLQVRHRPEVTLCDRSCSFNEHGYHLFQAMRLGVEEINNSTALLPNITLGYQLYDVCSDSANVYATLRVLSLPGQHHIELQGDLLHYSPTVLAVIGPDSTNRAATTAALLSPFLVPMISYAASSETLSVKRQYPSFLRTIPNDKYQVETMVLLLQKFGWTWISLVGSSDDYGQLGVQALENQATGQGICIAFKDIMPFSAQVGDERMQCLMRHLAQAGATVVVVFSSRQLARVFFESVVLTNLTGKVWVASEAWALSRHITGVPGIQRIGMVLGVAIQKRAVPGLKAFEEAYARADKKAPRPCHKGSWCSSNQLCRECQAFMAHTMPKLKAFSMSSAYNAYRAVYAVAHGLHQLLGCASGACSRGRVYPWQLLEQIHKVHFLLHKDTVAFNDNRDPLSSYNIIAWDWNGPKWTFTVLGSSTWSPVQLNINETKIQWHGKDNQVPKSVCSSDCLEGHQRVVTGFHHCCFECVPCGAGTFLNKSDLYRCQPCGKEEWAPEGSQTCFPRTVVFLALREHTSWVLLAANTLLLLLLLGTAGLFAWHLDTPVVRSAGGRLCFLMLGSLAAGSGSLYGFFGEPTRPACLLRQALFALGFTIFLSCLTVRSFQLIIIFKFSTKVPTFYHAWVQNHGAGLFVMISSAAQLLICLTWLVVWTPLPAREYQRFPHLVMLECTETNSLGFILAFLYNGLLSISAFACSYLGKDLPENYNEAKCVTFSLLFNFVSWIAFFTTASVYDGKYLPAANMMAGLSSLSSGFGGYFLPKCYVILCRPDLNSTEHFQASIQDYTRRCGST
T1 sequence (Q7RTX0 21-852 C757R partner): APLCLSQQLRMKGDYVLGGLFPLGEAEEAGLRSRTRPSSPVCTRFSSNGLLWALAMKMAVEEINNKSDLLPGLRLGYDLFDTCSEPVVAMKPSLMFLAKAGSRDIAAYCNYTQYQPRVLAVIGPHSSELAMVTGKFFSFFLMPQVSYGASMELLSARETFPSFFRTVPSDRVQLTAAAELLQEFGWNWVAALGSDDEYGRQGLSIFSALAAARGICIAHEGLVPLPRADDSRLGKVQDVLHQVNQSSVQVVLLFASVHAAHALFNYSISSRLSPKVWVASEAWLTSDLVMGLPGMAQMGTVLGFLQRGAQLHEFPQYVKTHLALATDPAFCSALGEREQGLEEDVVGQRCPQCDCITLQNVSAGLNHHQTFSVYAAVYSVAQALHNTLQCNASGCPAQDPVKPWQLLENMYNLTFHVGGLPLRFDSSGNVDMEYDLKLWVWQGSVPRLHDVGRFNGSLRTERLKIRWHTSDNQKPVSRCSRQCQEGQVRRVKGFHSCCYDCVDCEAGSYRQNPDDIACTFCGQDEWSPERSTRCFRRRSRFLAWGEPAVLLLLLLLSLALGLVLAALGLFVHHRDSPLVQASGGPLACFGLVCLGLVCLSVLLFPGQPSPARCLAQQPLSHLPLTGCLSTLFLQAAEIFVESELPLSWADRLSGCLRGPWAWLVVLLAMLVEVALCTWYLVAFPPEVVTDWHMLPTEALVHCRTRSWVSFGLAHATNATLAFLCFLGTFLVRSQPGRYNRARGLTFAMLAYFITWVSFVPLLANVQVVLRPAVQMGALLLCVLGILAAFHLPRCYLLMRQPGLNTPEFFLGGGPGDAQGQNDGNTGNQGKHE
Source text: To implement the identification of hT1R1-TMD modulators, cells transiently or stably expressing hT1R1 (T1R1) in the presence of hT1R3 (T1R3) are stimulated with library compounds. Similarly, the same compounds are screened in a GTPγS binding assay utilizing membranes expressing transmembrane domain (TMD) of hT1R1 as described in Zhang et al., Proc. Nat'l Acad. Sci., vol. 105, pp. 20930-20934 (2008). Compounds active exclusively active in the two assays are then prioritized and evaluated in sensory for the detection of an umami note on their own and synergy in the presence of MSG or MSG+IMP.
The compound N-(heptan-4-yl)-benzo[d][1,3]dioxole-5-carboxamide (S807) was used as a test compound in a T1R1/T1R3 assay, both alone and in the presence of monosodium glutamate (MSG).
In a similar way, the T1R1/T1R3 assay was used to measure the activity of monosodium glutamate (MSG), inosine 5′monophosphate (IMP), S807, MSG+IMP, 5807+MSG, 5807+IMP, and 5807+MSG+IMP.

SMILES | number of selections favoring the solution as having greater umami taste [1] | preference for MSG versus S807 (umami taste) [1] | agonist activity on T1R1/T1R3 (T1R1/T1R3; S807 alone, FIG. 2) | enhancement of the MSG effect on T1R1/T1R3 (T1R1/T1R3; in the presence of MSG, FIG. 2) | effect in combination with MSG (percent activity, FIG. 3) (T1R1/T1R3; with MSG) | effect in combination with MSG and IMP (percent activity, FIG. 3) (T1R1/T1R3; with the combination of MSG and IMP)
N[C@@H](CCC(=O)O)C(=O)[O-].[Na+] [MSG, monosodium glutamate, reference compound] | 19 |  |  |  |  | 
CCCC(CCC)NC(=O)c1ccc2c(c1)OCO2 [S807, N-(heptan-4-yl)-benzo[d][1,3]dioxole-5-carboxamide] | 13 | no statistically significant preference | agonist activity | enhancement properties on the MSG effect | synergistic effect | synergistic effect
